How the values were obtained:
Experiment in all cases: Etest MIC of indicator carbapenems on MH II agar without/with PMBN
Format in all cases: cell-based
C. freundii 1204047 = system: C. freundii 1204047
Description: (§1) The determinations of antibiotic MIC were carried out on solid culture media with the Etest® method. To do this, Etest® strips (bioMérieux, France) were used: • Etest® Imipenem IM 32, and • Etest® Ertapenem ETP 32, and also solid culture media, differing from one another by virtue of their non-inhibitory concentrations of PMBN.
(§2) These solid culture media are prepared in Petri dishes (0=145 mm; V=50 ml) on a base of MH II Agar (Becton Dickinson®, United States), more or less supplemented with PMBN. The PMBN concentrations range from 0 up to concentrations equivalent to one fifth of the MIC of PMBN (⅕ MICPMBN).
(§3) Using a swab and the Retro C80™ rota-plater (bioMérieux, France), the culture media were inoculated with the bacteria, originating from an inoculum of 0.5 McFarland, prepared in 0.85% NaCl solution from colonies subcultured the day before on MH II agar.
(§4) The various Etest® strips are then deposited on the surface of the culture media. After 16 to 20 hours of incubation at 35° C., the MICS were read.
(§5) To do this, imipenem and ertapenem were used as indicator carbapenems. Non-inhibitory concentrations of PMBN, equivalent to concentrations of one tenth ( 1/10), one eighth (⅛) and one fifth (⅕) of the MIC of PMBN, were applied.

[1] = system: E. cloacae 0901026 (KPC-2 producer)
Description: as §1, §2, §3, §4, §5

[2] = system: E. cloacae 1008079 (IMP-1 producer)
Description: as §1, §2, §3, §4, §5

[3] = system: E. cloacae 1008096 (VIM-1 producer)
Description: as §1, §2, §3, §4, §5

[4] = system: K. pneumoniae 0901027 (KPC-3 producer)
Description: as §1, §2, §3, §4, §5

[5] = system: K. pneumoniae 1012335 (OXA-48 producer)
Description: as §1, §2, §3, §4, §5

[6] = system: K. pneumoniae 1104053 (OXA-48 producer)
Description: as §1, §2, §3, §4, §5

[7] = system: K. pneumoniae 1108006 (KPC-2 producer)
Description: as §1, §2, §3, §4, §5

[8] = system: K. pneumoniae 1108016 (VIM-1 producer)
Description: as §1, §2, §3, §4, §5

For `C[C@@H](O)[C@H]1C(=O)N2C(C(=O)O)=C(S[C@@H]3CN[C@H](C(=O)Nc4cccc(C(=O)O)c4)C3)[C@H](C)[C@H]12` [ETP, ertapenem], which MIC (C. freundii 1204047; [PMBN] 0) is on record?
Its MIC is 32 µg/mL.

And the MIC (C. freundii 1204047; [PMBN] MIC/5)?
The MIC was 4 µg/mL.

And the MIC (C. freundii 1204047; [PMBN] MIC/8)?
The MIC was 8 µg/mL.

And the MIC (C. freundii 1204047; [PMBN] MIC/10)?
The MIC was 8 µg/mL.

And the MIC ([1]; [PMBN] 0)?
The MIC was 16 µg/mL.

And the MIC ([1]; [PMBN] MIC/5)?
Its MIC is 8 µg/mL.

What about the MIC ([1]; [PMBN] MIC/8) of the same molecule?
Its MIC is 32 µg/mL.

What about the MIC ([1]; [PMBN] MIC/10) of the same molecule?
Its MIC is 32 µg/mL.

And the MIC ([2]; [PMBN] 0)?
Its MIC is 4 µg/mL.

And the MIC ([2]; [PMBN] MIC/5)?
The MIC was 8 µg/mL.

And the MIC ([2]; [PMBN] MIC/8)?
The MIC was 8 µg/mL.

And the MIC ([2]; [PMBN] MIC/10)?
The MIC was 8 µg/mL.

And the MIC ([3]; [PMBN] 0)?
The MIC was 4 µg/mL.

What about the MIC ([3]; [PMBN] MIC/5) of the same molecule?
Its MIC is 4 µg/mL.

And the MIC ([3]; [PMBN] MIC/8)?
The MIC was 4 µg/mL.

What about the MIC ([3]; [PMBN] MIC/10) of the same molecule?
Its MIC is 4 µg/mL.

And the MIC ([4]; [PMBN] 0)?
The MIC was 16 µg/mL.

And the MIC ([4]; [PMBN] MIC/5)?
The MIC was 64 µg/mL.

What about the MIC ([4]; [PMBN] MIC/8) of the same molecule?
The MIC was 64 µg/mL.

What about the MIC ([4]; [PMBN] MIC/10) of the same molecule?
Its MIC is 64 µg/mL.

What about the MIC ([5]; [PMBN] 0) of the same molecule?
Its MIC is 2 µg/mL.

And the MIC ([5]; [PMBN] MIC/5)?
The MIC was 4 µg/mL.

And the MIC ([5]; [PMBN] MIC/8)?
The MIC was 4 µg/mL.

And the MIC ([5]; [PMBN] MIC/10)?
The MIC was 4 µg/mL.

And the MIC ([6]; [PMBN] 0)?
Its MIC is 4 µg/mL.

What about the MIC ([6]; [PMBN] MIC/5) of the same molecule?
The MIC was 4 µg/mL.

What about the MIC ([6]; [PMBN] MIC/8) of the same molecule?
Its MIC is 4 µg/mL.

What about the MIC ([6]; [PMBN] MIC/10) of the same molecule?
The MIC was 4 µg/mL.

And the MIC ([7]; [PMBN] 0)?
The MIC was 64 µg/mL.

What about the MIC ([7]; [PMBN] MIC/5) of the same molecule?
Its MIC is 256 µg/mL.

And the MIC ([7]; [PMBN] MIC/8)?
The MIC was 256 µg/mL.

What about the MIC ([7]; [PMBN] MIC/10) of the same molecule?
Its MIC is 256 µg/mL.

What about the MIC ([8]; [PMBN] 0) of the same molecule?
Its MIC is 1 µg/mL.

What about the MIC ([8]; [PMBN] MIC/5) of the same molecule?
The MIC was 2 µg/mL.

And the MIC ([8]; [PMBN] MIC/8)?
The MIC was 4 µg/mL.

What about the MIC ([8]; [PMBN] MIC/10) of the same molecule?
The MIC was 4 µg/mL.

Which MIC (C. freundii 1204047; [PMBN] 0) does the source give for `C[C@@H](O)[C@H]1C(=O)N2C(C(=O)O)=C(SCCN=CN)C[C@H]12` [IM, imipenem] here?
The MIC was 1 µg/mL.

And the MIC (C. freundii 1204047; [PMBN] MIC/5)?
Its MIC is 1 µg/mL.

What about the MIC (C. freundii 1204047; [PMBN] MIC/8) of the same molecule?
The MIC was 1 µg/mL.

What about the MIC (C. freundii 1204047; [PMBN] MIC/10) of the same molecule?
The MIC was 2 µg/mL.

And the MIC ([1]; [PMBN] 0)?
Its MIC is 16 µg/mL.

And the MIC ([1]; [PMBN] MIC/5)?
The MIC was 8 µg/mL.

And the MIC ([1]; [PMBN] MIC/8)?
Its MIC is 8 µg/mL.

And the MIC ([1]; [PMBN] MIC/10)?
Its MIC is 16 µg/mL.

And the MIC ([2]; [PMBN] 0)?
The MIC was 2 µg/mL.

And the MIC ([2]; [PMBN] MIC/5)?
The MIC was 2 µg/mL.

And the MIC ([2]; [PMBN] MIC/8)?
The MIC was 2 µg/mL.

What about the MIC ([2]; [PMBN] MIC/10) of the same molecule?
Its MIC is 4 µg/mL.

And the MIC ([3]; [PMBN] 0)?
The MIC was 4 µg/mL.

And the MIC ([3]; [PMBN] MIC/5)?
Its MIC is 4 µg/mL.

What about the MIC ([3]; [PMBN] MIC/8) of the same molecule?
Its MIC is 8 µg/mL.

And the MIC ([3]; [PMBN] MIC/10)?
The MIC was 8 µg/mL.

What about the MIC ([4]; [PMBN] 0) of the same molecule?
Its MIC is 8 µg/mL.

What about the MIC ([4]; [PMBN] MIC/5) of the same molecule?
Its MIC is 16 µg/mL.

What about the MIC ([4]; [PMBN] MIC/8) of the same molecule?
Its MIC is 8 µg/mL.

What about the MIC ([4]; [PMBN] MIC/10) of the same molecule?
Its MIC is 16 µg/mL.

And the MIC ([5]; [PMBN] 0)?
The MIC was 2 µg/mL.

What about the MIC ([5]; [PMBN] MIC/5) of the same molecule?
Its MIC is 2 µg/mL.

What about the MIC ([5]; [PMBN] MIC/8) of the same molecule?
Its MIC is 2 µg/mL.

What about the MIC ([5]; [PMBN] MIC/10) of the same molecule?
Its MIC is 2 µg/mL.

What about the MIC ([6]; [PMBN] 0) of the same molecule?
Its MIC is 2 µg/mL.

What about the MIC ([6]; [PMBN] MIC/5) of the same molecule?
Its MIC is 2 µg/mL.

What about the MIC ([6]; [PMBN] MIC/8) of the same molecule?
Its MIC is 2 µg/mL.

What about the MIC ([6]; [PMBN] MIC/10) of the same molecule?
The MIC was 2 µg/mL.

What about the MIC ([7]; [PMBN] 0) of the same molecule?
The MIC was 32 µg/mL.

And the MIC ([7]; [PMBN] MIC/5)?
The MIC was 32 µg/mL.

What about the MIC ([7]; [PMBN] MIC/8) of the same molecule?
Its MIC is 64 µg/mL.

And the MIC ([7]; [PMBN] MIC/10)?
Its MIC is 32 µg/mL.

And the MIC ([8]; [PMBN] 0)?
The MIC was 4 µg/mL.

What about the MIC ([8]; [PMBN] MIC/5) of the same molecule?
Its MIC is 4 µg/mL.

And the MIC ([8]; [PMBN] MIC/8)?
The MIC was 8 µg/mL.

And the MIC ([8]; [PMBN] MIC/10)?
The MIC was 8 µg/mL.

Source: patent US20180155757A1, “IDENTIFICATION OF BACTERIA THAT ARE RESISTANT TO CARBAPENEMS BY MEMBRANE IMPERVIOUSNESS” (BIOMÉRIEUX, priority 2015, published 2018)
